Data: ChEMBL document CHEMBL2202996, “Synthesis, evaluation, and radiolabeling of new potent positive allosteric modulators of the metabotropic glutamate receptor 2 as potential tracers for positron emission tomography imaging” (J Med Chem, 2012)

Assays:
HEK293 [1] = experiment: Selectivity ratio for human mGluR3 expressed in HEK293 cells to human mGluR2 expressed in CHO cell membranes; format: cell-based
[2] = Ratio of drug level in brain to plasma of Wistar rat brain at 0.63 mg/kg, iv; format: ADME, organism-based; parameters: dose 0.63 mg/kg, route intravenous; settings: read-out: BPR
HEK293 [3] = experiment: Selectivity ratio for human mGluR1 expressed in HEK293 cells to human mGluR2 expressed in CHO cell membranes; format: cell-based
HEK293 [4] = experiment: Selectivity ratio for human mGluR5 expressed in HEK293 cells to human mGluR2 expressed in CHO cell membranes; format: cell-based
Liver microsomes [5] = experiment: Drug metabolism in rat liver microsomes assessed as M+O oxidative metabolite; format: ADME, Microsome
D(1A) dopamine receptor [6] = molecular target: T1, D(1A) dopamine receptor (Homo sapiens, UniProt P21728); experiment: Binding affinity to dopamine D1 receptor
T1 sequence (P21728 whole entry): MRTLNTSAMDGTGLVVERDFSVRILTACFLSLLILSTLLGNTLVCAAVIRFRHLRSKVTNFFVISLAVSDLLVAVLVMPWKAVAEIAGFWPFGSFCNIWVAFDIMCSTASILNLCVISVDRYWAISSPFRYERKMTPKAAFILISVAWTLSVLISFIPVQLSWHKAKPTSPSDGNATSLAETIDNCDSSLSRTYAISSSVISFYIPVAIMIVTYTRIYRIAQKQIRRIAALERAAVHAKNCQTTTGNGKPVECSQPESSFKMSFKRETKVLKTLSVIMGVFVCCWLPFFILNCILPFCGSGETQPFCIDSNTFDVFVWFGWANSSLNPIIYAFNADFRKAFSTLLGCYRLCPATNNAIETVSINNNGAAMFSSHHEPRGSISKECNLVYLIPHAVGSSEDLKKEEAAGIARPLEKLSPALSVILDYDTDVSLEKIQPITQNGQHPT

[7] = Fraction unbound in human plasma; format: ADME, cell-free
[8] = molecular target: T2, Sodium-dependent dopamine transporter (Homo sapiens, UniProt Q01959); experiment: Binding affinity to DAT
T2 sequence (Q01959 whole entry): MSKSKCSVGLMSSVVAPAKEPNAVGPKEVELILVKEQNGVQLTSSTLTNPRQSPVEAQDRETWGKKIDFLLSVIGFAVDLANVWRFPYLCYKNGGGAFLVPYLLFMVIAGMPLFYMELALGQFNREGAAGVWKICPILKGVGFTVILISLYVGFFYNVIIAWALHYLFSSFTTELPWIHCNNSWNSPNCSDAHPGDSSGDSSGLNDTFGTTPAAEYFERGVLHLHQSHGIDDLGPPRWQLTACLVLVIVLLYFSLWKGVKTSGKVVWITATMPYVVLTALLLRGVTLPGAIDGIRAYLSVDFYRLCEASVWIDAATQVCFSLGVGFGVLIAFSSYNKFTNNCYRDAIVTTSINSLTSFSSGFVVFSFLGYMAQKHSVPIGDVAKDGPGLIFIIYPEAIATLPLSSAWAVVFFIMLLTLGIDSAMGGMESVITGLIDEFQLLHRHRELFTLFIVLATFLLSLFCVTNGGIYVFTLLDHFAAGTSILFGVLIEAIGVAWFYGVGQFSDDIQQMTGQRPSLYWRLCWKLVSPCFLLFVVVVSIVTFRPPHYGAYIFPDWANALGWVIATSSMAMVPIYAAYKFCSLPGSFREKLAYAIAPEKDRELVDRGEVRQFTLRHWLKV

Liver microsomes [9] = experiment: Drug metabolism in human liver microsomes assessed as M+O oxidative metabolite; format: ADME, Microsome
[10] = Fraction unbound in rat plasma; format: ADME, cell-free
[11] = Cmax in Wistar rat brain at 0.63 mg/kg, iv after 5 mins; format: ADME, organism-based; parameters: dose 0.63 mg/kg, route intravenous
HEK293 [12] = experiment: Selectivity ratio for human mGluR8 expressed in HEK293 cells to human mGluR2 expressed in CHO cell membranes; format: cell-based
[13] = molecular target: T3, Metabotropic glutamate receptor 2 (Homo sapiens, UniProt Q14416); experiment: Displacement of [3H]JNJ-40068782 from human mGLuR2 expressed in CHO cell membrane after 60 mins by liquid scintillation counting; format: cell membranes
Target sequence in this assay (Q14416 whole entry): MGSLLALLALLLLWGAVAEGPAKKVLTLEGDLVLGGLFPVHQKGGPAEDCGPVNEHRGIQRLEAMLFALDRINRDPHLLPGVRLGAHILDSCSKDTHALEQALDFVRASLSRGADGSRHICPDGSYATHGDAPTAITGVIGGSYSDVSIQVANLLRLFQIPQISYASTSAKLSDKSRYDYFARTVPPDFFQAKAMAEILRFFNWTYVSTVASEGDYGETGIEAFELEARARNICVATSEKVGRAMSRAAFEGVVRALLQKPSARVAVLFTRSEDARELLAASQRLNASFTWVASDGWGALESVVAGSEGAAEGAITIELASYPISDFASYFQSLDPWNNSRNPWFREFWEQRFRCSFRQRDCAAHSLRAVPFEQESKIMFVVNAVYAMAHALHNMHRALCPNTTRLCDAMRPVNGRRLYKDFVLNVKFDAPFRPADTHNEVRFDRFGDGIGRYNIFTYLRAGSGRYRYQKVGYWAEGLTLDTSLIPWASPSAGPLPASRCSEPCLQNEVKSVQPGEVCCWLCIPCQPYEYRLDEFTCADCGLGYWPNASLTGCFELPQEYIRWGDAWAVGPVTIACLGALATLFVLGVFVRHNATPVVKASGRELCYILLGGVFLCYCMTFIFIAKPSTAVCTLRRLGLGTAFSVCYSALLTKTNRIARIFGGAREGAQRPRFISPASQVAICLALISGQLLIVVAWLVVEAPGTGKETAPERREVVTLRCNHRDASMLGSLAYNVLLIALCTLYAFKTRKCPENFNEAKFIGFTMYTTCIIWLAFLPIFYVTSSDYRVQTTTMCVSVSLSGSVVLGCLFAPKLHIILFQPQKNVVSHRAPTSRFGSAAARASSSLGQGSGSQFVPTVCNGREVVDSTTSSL

CHO [14] = experiment: Selectivity ratio for human mGluR4 to human mGluR2 expressed in CHO cell membranes; format: cell-based
Liver microsomes [15] = experiment: Drug metabolism in human liver microsomes assessed as O-methylated compound derivative; format: ADME, Microsome
Liver microsomes [16] = experiment: Drug metabolism in rat liver microsomes assessed as O-methylated compound derivative; format: ADME, Microsome
D(1A) dopamine receptor [17] = molecular target: T1, D(1A) dopamine receptor; experiment: Binding affinity to dopamine D1 receptor at 10 uM by CEREP assay
[18] = Drug level in Wistar rat brain at 0.63 mg/kg, iv after 1 hr; format: ADME, organism-based; parameters: dose 0.63 mg/kg, route intravenous; settings: read-out: Drug uptake
[19] = molecular target: T3, Metabotropic glutamate receptor 2; experiment: Agonist activity at human mGLuR2 expressed in CHO cell membrane assessed as […] after 30 mins by scintillation counting; format: functional, cell membranes; settings: read-out: EC50
Target sequence in this assay (Q14416 whole entry): as above

HEK293 [20] = experiment: Selectivity ratio for human mGluR7 expressed in HEK293 cells to human mGluR2 expressed in CHO cell membranes; format: cell-based
CHO [21] = experiment: Selectivity ratio for rat mGluR6 to human mGluR2 expressed in CHO cell membranes; format: cell-based
[22] = molecular target: T2, Sodium-dependent dopamine transporter; experiment: Binding affinity to DAT at 10 uM by CEREP assay
[23] = molecular target: T3, Metabotropic glutamate receptor 2; experiment: Agonist activity at human mGLuR2 expressed in CHO cell membrane assessed as […] after 30 mins by scintillation counting relative to control; format: functional, cell membranes
Target sequence in this assay (Q14416 19-872 limits assumed): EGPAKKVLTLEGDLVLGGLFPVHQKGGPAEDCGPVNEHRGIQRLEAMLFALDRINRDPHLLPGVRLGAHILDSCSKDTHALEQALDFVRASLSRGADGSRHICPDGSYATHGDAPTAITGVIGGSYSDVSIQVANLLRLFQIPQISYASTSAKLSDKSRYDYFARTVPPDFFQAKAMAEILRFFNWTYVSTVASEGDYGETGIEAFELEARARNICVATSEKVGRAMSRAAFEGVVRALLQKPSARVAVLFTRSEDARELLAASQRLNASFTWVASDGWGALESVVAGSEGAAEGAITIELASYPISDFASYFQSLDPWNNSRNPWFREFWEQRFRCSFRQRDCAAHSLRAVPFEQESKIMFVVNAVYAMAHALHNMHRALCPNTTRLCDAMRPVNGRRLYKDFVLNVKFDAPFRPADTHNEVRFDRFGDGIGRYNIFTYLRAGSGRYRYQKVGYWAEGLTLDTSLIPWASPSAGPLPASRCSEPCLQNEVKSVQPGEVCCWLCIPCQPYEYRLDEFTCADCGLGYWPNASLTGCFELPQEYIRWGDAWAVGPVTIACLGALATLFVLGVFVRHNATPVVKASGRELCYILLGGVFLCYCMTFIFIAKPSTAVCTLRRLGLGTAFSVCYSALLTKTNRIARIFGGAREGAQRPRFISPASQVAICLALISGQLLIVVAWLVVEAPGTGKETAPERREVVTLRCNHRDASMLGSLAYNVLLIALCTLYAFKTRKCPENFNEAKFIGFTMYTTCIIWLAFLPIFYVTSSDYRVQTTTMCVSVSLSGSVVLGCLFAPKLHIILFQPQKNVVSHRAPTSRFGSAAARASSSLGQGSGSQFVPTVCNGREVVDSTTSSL

Kp [2]: 1.1
Drug metabolism (Liver microsomes [5]): Active
Ki (D(1A) dopamine receptor [6]): ≥ 6200 nM
fraction unbound [7]: < 0.01
Ki [8]: 5010 nM
Drug metabolism (Liver microsomes [9]): Active
fraction unbound [10]: < 0.01
Cmax [11]: 316 ng/g
IC50 [13]: 11.2 nM
Drug metabolism (Liver microsomes [15]): Active
Drug metabolism (Liver microsomes [16]): Active
Activity (D(1A) dopamine receptor [17]): 71%
concentration at 1 h [18]: 50 ng/g
EC50 [19]: 8.2 nM
Activity [22]: 83%
Emax [23]: 283%
Compound: COc1ccc(F)cc1C1CCN(c2ccn3c(CC4CC4)nnc3c2Cl)CC1
Selectivity ratio (HEK293 [1]): 40
Selectivity ratio (HEK293 [3]): > 350
Selectivity ratio (HEK293 [4]): > 350
Selectivity ratio (HEK293 [12]): > 350
Selectivity ratio (CHO [14]): > 350
Selectivity ratio (HEK293 [20]): > 350
Selectivity ratio (CHO [21]): > 350
